Laboratory results from US20090214507A1, “METHOD OF TREATING PREVENTING, INHIBITING OR REDUCING DAMAGE TO CARDIAC TISSUE” (RegeneRx Biopharmaceuticals, Inc., priority 2004, published 2009).

How the values were obtained:
[1] = test system: cardiac endothelial cells; test: collagen gel assay, transformation of cardiac endothelial cells to mesenchymal cells; format: cell-based; conditions: Tβ4 at physiological concentrations
Protocol: Synthetic Tβ4 and an antibody to Tβ4 was provided by RegeneRx Biopharmaceuticals, Inc. (3 Bethesda Metro Center, Suite 700, Bethesda, Md. 20814) and were tested in a collagen gel assay to determine their effects on the Transformation of cardiac endothelial cells to mesenchymal cells. It is well established that development of heart valves and other cardiac tissue are formed by epithelial-mesenchymal transformation and that defects in this process can cause serious cardiovascular malformation and injury during development and throughout life. […] Transformation of atrioventricular endocardium into invasive mesenchyme is an aspect of the formation and maintenance of normal cardiac tissue and in the formation of heart valves.

embryonic heart explants = test: embryonic heart explant collagen gel migration assay; format: cell-based, mouse
Protocol: To test the effects of secreted thymosin β4 on cardiac cell migration, an embryonic heart explant system designed to assay cell migration and transformation events on a three-dimensional collagen gel was utilized. In this assay, explants of adjacent embryonic myocardium and endocardium from valve-forming regions were placed on a collagen gel with the endocardium adjacent to the collagen.
(§1) To test the response of post-natal cardiomyocytes, primary rat neonatal cardiomyocytes were cultured on laminin-coated glass and treated the cells with phosphate buffered saline (PBS) or thymosin β4.
To determine if activation of ILK was necessary for the observed effects of thymosin β4, a well-described ILK inhibitor, wortmannin, was employed, which inhibits ILK's upstream kinase, phosphatidylinositol 3-kinase (PI3-kinase). Using myocardial cell migration and beating frequency as assays for thymosin β4 activity, embryonic heart explants were cultured as described above in the presence of thymosin β4 with or without wortmannin.
Outflow tract was dissected from E11.5 wild type mouse embryos and placed on collagen matrices as previously described. After 10 hours of attachment explants were incubated in 30 ng/300 μl thymosin β4 in PBS, PBS alone or thymosin β4 and 100 nM wortmannin. Cultures were carried out for 3-9 days at 37° C. 5% CO2 and fixed in 4% paraformaldehyde in PBS for 10 min at RT. Cells were counted for quantification of migration and distance using at least three separate explants under each condition for endothelial migration and eight separate explants for myocardial migration.
Paraformaldehyde-fixed explants were permeabilized for 10 min at RT with Permeabilize solution (10 mM PIPES pH6.8; 50 mMNaC1; 0.5% Triton X-100; 300 mM Sucrose; 3 mM MgC12) and rinsed with PBS 2×5 min at RT. After a series of blocking and rinsing steps, detection antibodies were used and explants rinsed and incubated with Equilibration buffer (Anti-Fade kit) 10 min at room temperature. Explants were scooped to a glass microscope slide, covered, and examined by fluorescein microscopy. TUNEL assay was performed using ApopTag Plus Fluorescein In Situ Apoptosis detection kit (Intergen Company #S7111) as recommended.

[2] = test system: primary rat neonatal cardiomyocytes; test: primary neonatal cardiomyocyte culture on laminin-coated glass; format: cell-based
Protocol: as §1
Primary culture of neonatal cardiomyocytes typically survived for approximately one to two weeks with some cells beating up to two weeks when grown on laminin-coated slides in our laboratory. […] In addition, the rate of beating was consistently faster in thymosin β4-treated neonatal cardiomyocytes (95 vs. 50 beats per minute, p<0.02), indicating either a change in cell-cell communication or more vigorous cardiomyocytes.

ILK / Akt [3] = test: ILK localization, expression and activation (immunocytochemistry, Western); format: cell-based
Protocol: Because recruitment of ILK to the focal adhesion complex is important for its activation, the effects of thymosin β4 on ILK localization and expression were assayed. […] Because thymosin β4 sequesters the pool of G-actin monomers, the effects on ILK activation were dependent on thymosin β4's role in regulating the balance between polymerized F-actin and monomeric G-actin were tested.

PINCH = molecular target: T1, PINCH (Mus musculus, UniProt Q99JW4); test: phage display ELISA and coimmunoprecipitation with PINCH; format: binding; conditions: ELISA; coimmunoprecipitation in transfected cultured cells
T1 construct: made in house; host or cells: T7 phage amplified in E. coli BLT5615
Text: (§2) To investigate the potential mechanisms through which thymosin β4 might be influencing cell migration and survival events, thymosin β4 interacting proteins were searched. The amino-terminus of thymosin β4 was fused with affi-gel beads resulting in exposure of the carboxy-terminus that allowed identification of previously unknown interacting proteins but prohibited association with actin. An E9.5-12.5 mouse heart T7 phage cDNA library was synthesized and screened by phage display and thymosin β4-interacting clones were enriched and confirmed by ELISA. […] PINCH and integrin linked kinase (ILK) interact directly with one another and indirectly with the actin cytoskeleton as part of a larger complex involved in cell-extracellular matrix interactions known as the focal adhesion complex. PINCH and ILK are required for cell motility and for cell survival, in part by promoting phosphorylation of the serine-threonine kinase Akt/protein kinase B, a central kinase in survival and growth signaling pathways. […] The PINCH interaction with thymosin β4 mapped to the fourth and fifth LIM domains of PINCH while the amino terminal ankryin domain of ILK was sufficient for thymosin β4 interaction.
300 ul of Affi-Gel 15 (Bio-Rad Laboratories) was coupled with 12 ug of synthesized thymosin β4 protein (RegeneRx) following the manufacturers manual, likely via amino terminal lysine residues. […]

[4] = molecular target: T2, integrin linked kinase (ILK) (Homo sapiens, UniProt Q13418); test: coimmunoprecipitation with ILK; format: binding; conditions: coimmunoprecipitation in transfected cultured cells
T2 construct: expressed in transfected cells; host or cells: Cos and 10T1/2 cells
T2 sequence (Q13418 1-452): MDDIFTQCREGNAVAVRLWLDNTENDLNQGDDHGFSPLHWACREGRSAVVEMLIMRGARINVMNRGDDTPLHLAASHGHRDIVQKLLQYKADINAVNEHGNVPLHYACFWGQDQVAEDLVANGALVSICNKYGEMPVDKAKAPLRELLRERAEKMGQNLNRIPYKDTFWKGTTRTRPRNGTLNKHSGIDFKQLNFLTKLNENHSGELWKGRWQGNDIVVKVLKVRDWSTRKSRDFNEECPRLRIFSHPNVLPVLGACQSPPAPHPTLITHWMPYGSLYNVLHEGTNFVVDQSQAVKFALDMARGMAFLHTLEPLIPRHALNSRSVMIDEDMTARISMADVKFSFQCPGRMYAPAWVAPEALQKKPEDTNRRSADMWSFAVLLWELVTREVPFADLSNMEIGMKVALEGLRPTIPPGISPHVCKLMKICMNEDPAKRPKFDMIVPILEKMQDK
Text: as §2
Cos and 10 T1/2 cells were transfected with thymosin β4, PINCH and/or ILK and lysates precipitated with antibodies to each as previously described. […]

[5] = test system: myocardial infarction in adult mice; test: myocardial infarction by coronary artery ligation, echocardiography and histology; format: in vivo, mouse
Protocol: Because of thymosin β4's effects on survival and migration of cardiomyocytes cultured in vitro and phosphorylation of Akt, it was tested whether thymosin β4 might aid in cardiac repair in vivo after myocardial damage. Myocardial infarctions in fifty-eight adult mice were created by coronary artery ligation and treated half with systemic, intracardiac, or systemic plus intracardiac thymosin β4 immediately after ligation and the other half with PBS. Intracardiac injections were done with collagen (control) or collagen mixed with thymosin β4. All forty-five mice that survived two weeks later were interrogated for cardiac function by random-blind ultrasonography at 2 and 4 weeks after infarction by multiple measurements of cardiac contraction. […] Control cardiac injections were performed with the same collagen vehicle making it unlikely that an endogenous reaction to the injection contributed to the cardiac recovery.
To determine the manner in which […] improved cardiac function, multiple serial histologic sections of hearts treated with or without thymosin β4 were examined. […] TUNEL positive cells that were also myocytes were rare in the thymosin β4 group but abundant in the control hearts. […] Thus, the decreased scar volume and preserved function of thymosin β4 treated mice were likely due to early preservation of myocardium after infarction through thymosin β4's effects on survival of cardiomyocytes.
Embryonic or adult cardiac tissue was embedded in paraffin and sections used for immunohistochemistry. […] Adult hearts were sectioned at ten equivalent levels from the base of the heart to the apex. Serial sections were used for trichrome sections and reaction with sarcomeric a-actinin, c-kit, Sca-1, Abcg2, and BrdU antibodies and for TUNEL assay (Intergen Company #S7111).
(§3) Myocardial infarction was produced in fifty-eight male C57BL/6J mice at 16 weeks of age (25-30 g) by ligation of the left anterior descending coronary artery as previously described. Twenty-nine of the ligated mice received thymosin β4 treatment immediately following ligation and the remaining twenty-nine received PBS injections. Treatment was given intracardiac with thymosin β4 (200 ng in 10 ul collagen) or with 10 ul of collagen; intraperitoneally with thymosin β4 (150 μg in 300 μl PBS) or with […]; or by both intracardiac and intraperitoneal injections. Intraperitoneal injections were given every three days until mice were sacrificed. Doses were based on previous studies of thymosin β4 biodistribution. Hearts were removed, weighed and fixed for histologic sectioning. Additional mice were operated on in a similar fashion for studies 0.5, 1, 3, 6 and 11 days after ligation.
Echocardiograms to assess systolic function were performed using M-mode and 2-dimensional measurements as described previously. The measurements represented the average of six selected cardiac cycles from at least two separate scans performed in random-blind fashion with papillary muscles used as a point of reference for consistency in level of scan. End diastole was defined as the maximal left ventricle (LV) diastolic dimension and end systole was defined as the peak of posterior wall motion. Single outliers in each group were omitted for statistical analysis. Fractional shortening (FS), a surrogate of systolic function, was calculated from LV dimensions as follows: FS=EDD−ESD/EDD×100%. Ejection fraction (EF) was calculated from two-dimensional images. EDD, end diastolic dimension; ESD, end systolic dimension.
Scar volume was calculated using six sections through the heart of each mouse using Openlab 3.03 software (Improvision) similar to previously described. Percent area of collagen deposition was measured on each section in blinded fashion and averaged for each mouse.

ILK / Akt [6] = test: western blot of heart lysates after coronary ligation; format: in vivo, mouse
Protocol: Because thymosin β4 upregulates ILK activity and Akt phosphorylation in cultured cells, the effects on these kinases in vivo were tested. […] Total Akt protein was not increased.
as §3

[7] = four weeks after infarction, versus control

T1 sequence (Q99JW4 whole entry): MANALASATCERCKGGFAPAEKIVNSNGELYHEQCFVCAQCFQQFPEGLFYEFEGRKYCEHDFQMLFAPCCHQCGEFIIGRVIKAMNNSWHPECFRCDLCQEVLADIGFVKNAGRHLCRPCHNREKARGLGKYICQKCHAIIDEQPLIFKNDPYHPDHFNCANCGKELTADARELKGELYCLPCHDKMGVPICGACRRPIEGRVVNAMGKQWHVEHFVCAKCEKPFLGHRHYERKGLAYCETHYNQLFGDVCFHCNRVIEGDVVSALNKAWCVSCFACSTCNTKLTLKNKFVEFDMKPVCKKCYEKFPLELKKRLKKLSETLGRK

thymosin β4
transformation of endocardial cells to mesenchymal cells [1]: markedly enhances
number of migrating endothelial cells (embryonic heart explants; E11.5 explants, compared to PBS, p<0.01): increased number of migrating endothelial cells
cell death (TUNEL assay) in migrated cells (embryonic heart explants; compared to control cells): No significant difference
proliferative rate (phosho-histone H3 immunostaining) in migrated cells (embryonic heart explants; compared to control cells): No significant difference
migration of myocardial cells away from the explant (embryonic heart explants; thymosin β4 added to primary explants on collagen gel): a large number of spontaneously beating, cardiac muscle actin-positive cells had migrated away from the explant
migrational distance of neonatal cardiomyocytes ([2]; compared to control, p<0.05): significantly increased
survival in culture, rhythmically contracting myocytes visible ([2]; control cultures survive approximately one to two weeks): up to 28 days
rate of beating ([2]; vs. 50 in control, p<0.02): 95 beats per minute
ILK protein levels (Western analysis) (ILK / Akt [3]; C2C12 cells): modest increase
total Akt protein (ILK / Akt [3]; C2C12 cells): unchanged
phosphorylation of Akt (serine 473) (ILK / Akt [3]; C2C12 cells, phospho-specific antibody): increased phosphorylation
ILK detection by immunocytochemistry (ILK / Akt [3]; embryonic heart explants or C2C12 myoblasts, 10 ng/100 ul synthetic protein or expressing plasmid): markedly enhanced around the cell edges
interaction with PINCH (PINCH): interacted with thymosin β4 in the absence of actin
interaction with ILK [4]: weaker than with PINCH
cardiac dilation after infarction (EDD and ESD) ([5]; EDD and ESD significantly higher in control group): decreased cardiac dilation
mean ejection fraction ([5]; four weeks after infarction, n=23, 95% confidence interval, control 28.2): 57.7+/−3.2%
mean left ventricle fractional shortening ([5]; four weeks after infarction, n=23, 95% confidence intervals, control 23.2): 37.2+/−1.8%
improvement in cardiac fractional shortening [5, 7]: greater than 60%
improvement in ejection fraction [5, 7]: > 100%
degree of improvement, systemic (intraperitoneal) versus local intracardiac administration ([5]; mouse, in vivo, ip): not statistically different
scar volume ([5]; six levels of sections through left ventricle, subset of mice, p<0.05): significant reduction
left ventricle fractional shortening ([5]; three days after infarction, intracardiac treatment, n=4, 95% confidence interval, control 28.8): 39.2+/−2.34%
ejection fraction ([5]; three days after infarction, intracardiac treatment, control 44.7): 64.2+/−6.69%
size of scar (trichrome stain) ([5]; three levels of section, all treated mice): reduced
cardiomyocyte proliferation or death ([5]; three, six, eleven or fourteen days after coronary ligation): did not detect significant cardiomyocyte proliferation or death
number of c-kit, Sca-1 or Abcg2 positive cardiomyocytes ([5]; treated versus untreated hearts): no detection of any differences
cardiomyocyte cell death by TUNEL assay ([5]; twenty-four hours after ligation): striking decrease in cell death
total Akt protein (ILK / Akt [6]): not increased
level of ILK protein in heart lysates (ILK / Akt [6]; compared with PBS treated mice): increased
amount of phosphorylated Akt-5473 (ILK / Akt [6]; phospho-specific antibodies): elevation
